Measured values taken from ChEMBL document CHEMBL1150082, “Antheliatin and Zahavins A and B, Three New Cytotoxic Xenicane Diterpenes from Two Soft Corals” (J Nat Prod, 1995).
Converted amounts (≈) assume the structure as drawn.

Experiments:
Format in all cases: functional, cell-based
P388 = assay: Cytotoxicity against mouse P388 cells
HT-29 = assay: Cytotoxicity against human HT-29 cells
A549 = assay: Cytotoxicity against human A549 cells
SK-MEL-28 = assay: Cytotoxicity against human SK-MEL-28 cells

C=C(C)C(CC(OC(C)=O)C1=CO[C@H](OC(C)=O)[C@H]2C(=C)CC/C=C(\C)CC[C@H]12)OC(C)=O (some centres not stated) [ZAHAVIN A]
IC50 (P388): 1 µg/mL (≈ 2.17 µM)
IC50 (HT-29): 1 µg/mL (≈ 2.17 µM)
IC50 (A549): 1 µg/mL (≈ 2.17 µM)
IC50 (SK-MEL-28): 1 µg/mL (≈ 2.17 µM)

C=C(C)C(CC(OC(C)=O)C1=CO[C@H](OC(C)=O)[C@@H]2C(=C)[C@H](O)C/C=C(\C)CC[C@H]12)OC(C)=O (some centres not stated) [ZAHAVIN B]
IC50 (P388): 1 µg/mL (≈ 2.1 µM)
IC50 (HT-29): 1 µg/mL (≈ 2.1 µM)
IC50 (A549): 1 µg/mL (≈ 2.1 µM)
IC50 (SK-MEL-28): 1 µg/mL (≈ 2.1 µM)

C=C1[C@H]2[C@@H](OC(C)=O)OC=C([C@H](OC(C)=O)[C@@H](C=C(C)C)OC(=O)c3ccccc3)[C@H]2CC/C(C)=C/[C@H](OC(C)=O)[C@H]1O [ANTHELIATIN]
IC50 (P388): 1 µg/mL (≈ 1.68 µM)
IC50 (HT-29): 0.1 µg/mL (≈ 0.168 µM)
IC50 (A549): 1 µg/mL (≈ 1.68 µM)
IC50 (SK-MEL-28): 1 µg/mL (≈ 1.68 µM)
